IC50 and EC50 data for 33 compounds are collected here from US10550091B2, “1,4,5-substituted 1,2,3-triazole analogues as antagonists of the pregnane X receptor” (ST. JUDE CHILDREN'S RESEARCH HOSPITAL, priority 2016, dated 2020).

Like-named read-outs stand apart in the source and are kept apart here.

The target in data set [1] is human peroxisome proliferator-activated receptor gamma (PPARγ) (Homo sapiens, UniProt P37231). Briefly: human peroxisome proliferator-activated receptor gamma (PPARγ) transactivation assay. Type of data set: cell-based.
Experimental: Cells were maintained by following manufacturer's instruction. Briefly, PPARγ cells were maintained in matrigel-coated tissue culture flasks in DMEM supplemented with 10% dialyzed FBS, 0.1 mM non-essential amino acids, 1 mM sodium pyruvate, 25 mM HEPES, 100 μg/ml of hygromycin B, 500 μg/ml of geneticin, 100 units/ml penicillin and 100 μg/ml streptomycin. […] Assay medium containing DMSO without cells serves as background control.
For data set [2], the target named is T1, hPXR (Homo sapiens (Human), UniProt O75469). The experiment in a line: hPXR transactivation assays (agonistic and antagonistic), HepG2 cells with CYP3A4-luciferase reporter. The note with it: 24 h, NA = not active; for IC50: read-out: IC50 (antag), antagonistic assay, combined with 5 μM rifampicin; for EC50: read-out: EC50 (agon), agonistic assay, compound alone. For orientation: A reporter such as luciferase makes a cellular process visible.
Experimental: (§1) The hPXR transactivation assays (PXR agonistic and antagonistic assays) were performed in the HepG2 cells stably expressing FLAG-hPXR and CYP3A4-luciferase reporter. […] The luminescence signal was detected using an Envision plate reader (PerkinElmer Life Sciences).

Data set [3] concerns the target T1, hPXR.
Experimental: as §1
The subject of data set [4] is HepG2 cells. Briefly: HepG2 cytotoxicity assay (CellTiter Glo). Type of data set: cell-based. The note with it: Homo sapiens, HepG2, 72 h, read-out: IC50 (cyto). (In ATP-based viability assays light output follows the ATP content of the culture.)
Text: The luminescence signal was detected using an Envision plate reader (PerkinElmer Life Sciences).
Data set [5] deals with human retinoid X receptor beta (hRXRβ) (Homo sapiens, UniProt P28702). The experiment in a line: human retinoid X receptor beta (hRXRβ) transactivation assay. Type of data set: cell-based.
Experimental: Cells were maintained by following manufacturer's instruction. Briefly, RXRβ cells were maintained in DMEM supplemented with 10% dialyzed FBS, 0.1 mM non-essential amino acids, 25 mM HEPES, 100 μg/ml of hygromycin B, 100 μg/ml of zeocin, 100 units/ml penicillin and 100 μg/ml streptomycin.
For data set [6], the target named is human glucocorticoid receptor (hGR) (Homo sapiens, UniProt P04150). Briefly: human glucocorticoid receptor (hGR) transactivation assay. The class given is cell-based. The note with it: Anta = compound exhibited antagonism; read-out: GR (Anta).
Setting [7] is: Anta = compound exhibited antagonism, read-out: PPARγ (Anta).

Sequence of human peroxisome proliferator-activated receptor gamma (PPARγ) (P37231 whole entry, looked up): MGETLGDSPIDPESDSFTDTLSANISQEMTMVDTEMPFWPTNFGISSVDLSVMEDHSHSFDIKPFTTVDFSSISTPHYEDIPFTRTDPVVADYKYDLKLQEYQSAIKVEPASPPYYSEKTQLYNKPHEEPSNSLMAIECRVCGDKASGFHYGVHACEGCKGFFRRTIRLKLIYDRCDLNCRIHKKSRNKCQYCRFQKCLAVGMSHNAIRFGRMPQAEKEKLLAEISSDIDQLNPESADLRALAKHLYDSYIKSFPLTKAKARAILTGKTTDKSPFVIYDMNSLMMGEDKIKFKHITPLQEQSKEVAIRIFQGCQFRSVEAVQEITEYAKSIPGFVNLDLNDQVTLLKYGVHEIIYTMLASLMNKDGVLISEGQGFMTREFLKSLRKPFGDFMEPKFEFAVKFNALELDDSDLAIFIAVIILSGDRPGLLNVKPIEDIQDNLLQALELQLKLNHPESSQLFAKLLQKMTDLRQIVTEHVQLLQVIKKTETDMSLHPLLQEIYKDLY
T1 sequence (O75469 whole entry): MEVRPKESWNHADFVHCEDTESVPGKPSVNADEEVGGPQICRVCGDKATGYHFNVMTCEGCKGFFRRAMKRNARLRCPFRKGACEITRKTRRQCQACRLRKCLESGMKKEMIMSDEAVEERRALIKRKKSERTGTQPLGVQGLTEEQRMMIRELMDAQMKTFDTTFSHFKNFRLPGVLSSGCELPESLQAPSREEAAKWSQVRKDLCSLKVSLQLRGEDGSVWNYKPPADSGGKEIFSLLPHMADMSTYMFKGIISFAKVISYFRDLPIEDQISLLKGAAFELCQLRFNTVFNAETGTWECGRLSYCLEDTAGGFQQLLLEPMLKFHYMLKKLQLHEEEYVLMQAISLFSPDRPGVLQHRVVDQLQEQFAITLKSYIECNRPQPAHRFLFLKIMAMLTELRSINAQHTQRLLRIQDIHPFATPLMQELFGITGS
Sequence of human retinoid X receptor beta (hRXRβ) (P28702 whole entry, looked up): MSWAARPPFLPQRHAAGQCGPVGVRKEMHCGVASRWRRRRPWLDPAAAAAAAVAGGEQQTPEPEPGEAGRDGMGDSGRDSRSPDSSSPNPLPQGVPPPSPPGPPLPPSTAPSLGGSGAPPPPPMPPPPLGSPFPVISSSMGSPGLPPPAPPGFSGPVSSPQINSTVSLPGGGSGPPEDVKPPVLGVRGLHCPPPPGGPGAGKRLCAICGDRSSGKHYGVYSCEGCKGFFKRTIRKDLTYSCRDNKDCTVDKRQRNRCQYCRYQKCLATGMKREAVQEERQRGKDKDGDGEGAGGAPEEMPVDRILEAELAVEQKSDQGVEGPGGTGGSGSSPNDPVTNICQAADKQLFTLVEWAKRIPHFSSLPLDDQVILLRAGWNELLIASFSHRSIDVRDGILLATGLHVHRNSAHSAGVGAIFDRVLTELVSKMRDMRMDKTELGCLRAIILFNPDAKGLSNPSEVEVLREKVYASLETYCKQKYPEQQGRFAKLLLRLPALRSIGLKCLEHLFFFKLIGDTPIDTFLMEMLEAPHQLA
Sequence of human glucocorticoid receptor (hGR) (P04150 whole entry, looked up): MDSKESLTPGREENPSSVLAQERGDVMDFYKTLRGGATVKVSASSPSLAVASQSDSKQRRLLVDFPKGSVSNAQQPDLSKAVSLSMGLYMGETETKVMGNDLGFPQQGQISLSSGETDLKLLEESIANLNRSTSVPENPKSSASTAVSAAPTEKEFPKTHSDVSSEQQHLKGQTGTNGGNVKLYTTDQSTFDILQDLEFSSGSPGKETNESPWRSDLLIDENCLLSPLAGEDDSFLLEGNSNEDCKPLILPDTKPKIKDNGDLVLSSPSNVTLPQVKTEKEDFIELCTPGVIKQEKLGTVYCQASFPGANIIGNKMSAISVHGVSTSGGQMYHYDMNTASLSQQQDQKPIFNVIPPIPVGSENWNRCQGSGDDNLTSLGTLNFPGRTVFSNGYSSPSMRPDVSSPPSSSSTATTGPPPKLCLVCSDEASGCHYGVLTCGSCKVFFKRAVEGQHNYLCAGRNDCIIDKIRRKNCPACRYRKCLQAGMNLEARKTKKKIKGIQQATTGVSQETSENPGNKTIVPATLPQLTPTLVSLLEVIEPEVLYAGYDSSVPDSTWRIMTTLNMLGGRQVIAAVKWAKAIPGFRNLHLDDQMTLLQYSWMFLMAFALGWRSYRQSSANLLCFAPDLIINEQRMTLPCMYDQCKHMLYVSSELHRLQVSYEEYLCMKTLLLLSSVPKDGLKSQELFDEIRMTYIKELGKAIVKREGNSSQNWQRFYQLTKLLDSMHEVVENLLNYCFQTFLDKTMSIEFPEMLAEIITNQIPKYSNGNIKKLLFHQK

With `O=C(Nc1ccccc1)c1cc([N+](=O)[O-])ccc1Cl` [GW9662, reference compound], the IC50 in data set [1] (PPARγ antagonistic assay, 100 nM rosiglitazone, read-out: IC50) turned out to be 0.241 µM. Take `COc1ccc(C)cc1-n1nnc(S(=O)(=O)c2ccc(C(C)C)cc2)c1C` [LC-2]: in data set [2], the IC50 is 0.66 µM.

In the case of `COc1ccc(Cl)cc1-n1nnc(S(=O)(=O)c2ccc(C(C)C)cc2)c1C` [LC-3], the IC50 in data set [2] amounted to 0.52 µM.

For the compound `COc1ccc(OC)c(-n2nnc(S(=O)(=O)c3ccc(C(C)C)cc3)c2C)c1` [LC-4], the IC50 in data set [2] was found to be 0.63 µM.

`COc1cc(C(C)=O)c(C)cc1-n1nnc(S(=O)(=O)c2ccc(C(C)(C)C)cc2)c1C` [LC-26, 1-(4-(4-((4-(tert-butyl)phenyl)sulfonyl)-5-methyl-1H-1,2,3-triazol-1-yl)-5-methoxy-2-methylphenyl)ethan-1-one] had an EC50 in data set [3] of 0.16 µM. Besides, in data set [4] (NA = not active), the IC50 came to 3.4 µM.

For the compound `COc1cc(Cl)c(Cl)cc1-n1nnc(S(=O)(=O)c2ccc(C(C)(C)C)cc2)c1C` [LC-28, 4-((4-(tert-butyl)phenyl)sulfonyl)-1-(4,5-dichloro-2-methoxyphenyl)-5-methyl-1H-1,2,3-triazole], the IC50 in data set [1] (setting [7]) stood at 14.4 µM. Regarding `CCc1cc(OC)c(-n2nnc(S(=O)(=O)c3ccc(C(C)(C)C)cc3)c2C)cc1Cl` [LC-31, 4-((4-(tert-butyl)phenyl)sulfonyl)-1-(5-chloro-4-ethyl-2-methoxyphenyl)-5-methyl-1H-1,2,3-triazole], the EC50 in data set [3] came out at 0.76 µM. Moreover, the IC50 in data set [4] (NA = not active) was found to be 14.8 µM. Taken in the same sequence, the figures for `COc1cc(C(C)=O)c(Cl)cc1-n1nnc(S(=O)(=O)c2ccc(C(C)(C)C)cc2)c1C` [LC-35, 1-(4-(4-((4-(tert-butyl)phenyl)sulfonyl)-5-methyl-1H-1,2,3-triazol-1-yl)-2-chloro-5-methoxyphenyl)ethan-1-one] were 1.3 µM and 7.2 µM. For `COc1cc(C#N)c(Cl)cc1-n1nnc(S(=O)(=O)c2ccc(C(C)(C)C)cc2)c1C` [LC-36, 4-(4-((4-(tert-butyl)phenyl)sulfonyl)-5-methyl-1H-1,2,3-triazol-1-yl)-2-chloro-5-methoxybenzonitrile], the EC50 in data set [2] is 2.4 µM.

As to `COc1ccc(Cl)cc1-n1nnc(S(=O)(=O)c2ccc(C(C)(C)C)cc2)c1N` [LC-39, 4-((4-(tert-butyl)phenyl)sulfonyl)-1-(5-chloro-2-methoxyphenyl)-1H-1,2,3-triazol-5-amine], the EC50 in data set [3] came out at 1 µM. For the same compound, the IC50 in data set [4] (NA = not active) was determined as 16.1 µM. The compound `COc1ccc(C)cc1-n1nnc(Nc2ccc(C(C)(C)C)cc2)c1C` [LC-44, N-(4-(tert-butyl)phenyl)-1-(2-methoxy-5-methylphenyl)-5-methyl-1H-1,2,3-triazol-4-amine] returned an EC50 in data set [3] of 1.2 µM. For the same compound, the IC50 in data set [4] (NA = not active) was found to be 22.5 µM. For `COc1ccc(Cl)cc1-n1nnc(Nc2ccc(C(C)(C)C)cc2)c1C` [LC-45, N-(4-(tert-butyl)phenyl)-1-(5-chloro-2-methoxyphenyl)-5-methyl-1H-1,2,3-triazol-4-amine], in data set [3], the EC50 was 1.1 µM. Further, the IC50 in data set [4] (NA = not active) is 30.7 µM. Regarding `COc1ccc(Cl)cc1-n1nnc(N(C)c2ccc(C(C)(C)C)cc2)c1C` [LC-48, N-(4-(tert-butyl)phenyl)-1-(5-chloro-2-methoxyphenyl)-N,5-dimethyl-1H-1,2,3-triazol-4-amine], the EC50 in data set [3] turned out to be 0.7 µM. In data set [4] (NA = not active), the IC50 is 33.8 µM. Consider `COc1ccc(OC)c(-n2nnc(S(=O)(=O)c3ccc(C(C)(C)C)cc3)c2Br)c1` [LC-61, 5-bromo-4-((4-(tert-butyl)phenyl)sulfonyl)-1-(2,5-dimethoxyphenyl)-1H-1,2,3-triazole], for which the IC50 in data set [1] (setting [7]) amounted to 12.8 µM. Same read-out and setting: as for `COc1ccc(Cl)cc1-n1nnc(S(=O)(=O)c2ccc(C(C)(C)C)cc2)c1Br` [LC-62, 5-bromo-4-((4-(tert-butyl)phenyl)sulfonyl)-1-(5-chloro-2-methoxyphenyl)-1H-1,2,3-triazole], the figure is 10.5 µM. Regarding `COc1ccc(C)cc1-n1nnc(S(=O)(=O)c2ccc(C(C)(C)C)cc2)c1CCl` [LC-65, 4-((4-(tert-butyl)phenyl)sulfonyl)-5-(chloromethyl)-1-(2-methoxy-5-methylphenyl)-1H-1,2,3-triazole], in data set [3], the EC50 was determined as 6.1 µM. In data set [4] (NA = not active), the IC50 was 7 µM.

`COC(=O)Cc1c(S(=O)(=O)c2ccc(C(C)(C)C)cc2)nnn1-c1cc(C)ccc1OC` [LC-66, methyl 2-(4-((4-(tert-butyl)phenyl)sulfonyl)-1-(2-methoxy-5-methylphenyl)-1H-1,2,3-triazol-5-yl)acetate]: the EC50 in data set [5] (Ag = compound exhibited agonism, read-out: RXRβ (Ag)) is 19.3 µM.

As to `COc1ccc(C)cc1-c1ncc(S(=O)(=O)c2ccc(C(C)(C)C)cc2)[nH]1` [LC-68, 5-((4-(tert-butyl)phenyl)sulfonyl)-2-(2-methoxy-5-methylphenyl)-1H-imidazole], the EC50 in data set [3] worked out at 1.5 µM. Compound `COc1ccc(Cl)cc1-c1ncc(S(=O)(=O)c2ccc(C(C)(C)C)cc2)[nH]1` [LC-69, 5-((4-(tert-butyl)phenyl)sulfonyl)-2-(5-chloro-2-methoxyphenyl)-1H-imidazole] registered an EC50 in data set [3] of 0.61 µM. On to `COc1ccc(C)cc1-c1ncc(S(=O)(=O)c2ccc(C(C)(C)C)cc2)n1C` [LC-71, 5-((4-(tert-butyl)phenyl)sulfonyl)-2-(2-methoxy-5-methylphenyl)-1-methyl-1H-imidazole], for which, in data set [4] (NA = not active), the IC50 is 34.9 µM.

As to `COc1ccc(Cl)cc1-c1ncc(S(=O)(=O)c2ccc(C(C)(C)C)cc2)n1C` [LC-72, 5-((4-(tert-butyl)phenyl)sulfonyl)-2-(5-chloro-2-methoxyphenyl)-1-methyl-1H-imidazole], the IC50 in data set [4] (NA = not active) is 30.9 µM.

Regarding `COc1ccc(OC)c(-c2nc(C)c(S(=O)(=O)c3ccc(C(C)(C)C)cc3)[nH]2)c1` [LC-73, 5-((4-(tert-butyl)phenyl)sulfonyl)-2-(2,5-dimethoxyphenyl)-4-methyl-1H-imidazole], the IC50 in data set [6] came out at 4.4 µM. In data set [3], `COc1ccc(Cl)cc1-c1nc(C)c(S(=O)(=O)c2ccc(C(C)(C)C)cc2)[nH]1` [LC-75, 5-((4-(tert-butyl)phenyl)sulfonyl)-2-(5-chloro-2-methoxyphenyl)-4-methyl-1H-imidazole] registered an EC50 of 0.92 µM. Regarding `COc1ccc(OC)c(-c2nc(C)c(S(=O)(=O)c3ccc(C(C)(C)C)cc3)n2C)c1` [LC-76, 5-((4-(tert-butyl)phenyl)sulfonyl)-2-(2,5-dimethoxyphenyl)-1,4-dimethyl-1H-imidazole], the EC50 in data set [3] came to 2.8 µM. Still for that read-out and setting: as for `COc1ccc(C)cc1-c1nc(C)c(S(=O)(=O)c2ccc(C(C)(C)C)cc2)n1C` [LC-77, 5-((4-(tert-butyl)phenyl)sulfonyl)-2-(2-methoxy-5-methylphenyl)-1,4-dimethyl-1H-imidazole], the figure is 0.79 µM. Regarding `COc1ccc(Cl)cc1-c1nc(C)c(S(=O)(=O)c2ccc(C(C)(C)C)cc2)n1C` [LC-78, 5-((4-(tert-butyl)phenyl)sulfonyl)-2-(5-chloro-2-methoxyphenyl)-1,4-dimethyl-1H-imidazole], the EC50 in data set [3] worked out at 1.4 µM. Further, the IC50 in data set [4] (NA = not active) was 24.4 µM.

In data set [3], `COc1ccc(C)cc1-c1ncc(C(=O)c2ccc(C(C)(C)C)cc2)n1C` [LC-80, (4-(tert-butyl)phenyl)(2-(2-methoxy-5-methylphenyl)-1-methyl-1 h-imidazol-5-yl)methanone] yielded an EC50 of 2.4 µM. In data set [3], `COc1ccc(Cl)cc1-c1ncc(C(=O)c2ccc(C(C)(C)C)cc2)n1C` [LC-81, (4-(tert-butyl)phenyl)(2-(5-chloro-2-methoxyphenyl)-1-methyl-1H-imidazol-5-yl)methanone] showed an EC50 of 1.2 µM.

For the compound `COc1ccc(O)c(-n2nnc(S(=O)(=O)c3ccc(C(C)(C)C)c(O)c3)c2C)c1` [LC-83, 2-(4-((4-(tert-butyl)-3-hydroxyphenyl)sulfonyl)-5-methyl-1H-1,2,3-triazol-1-yl)-4-methoxyphenol], in data set [2], the EC50 came to 5 µM. For the same compound, the IC50 in data set [4] came out at 16.2 µM.

Consider `COc1ccc(OC)c(-n2nnc(S(=O)(=O)c3ccc(C(C)(C)C)cc3O)c2C)c1` [LC-84, 5-(tert-butyl)-2-((1-(2,5-dimethoxyphenyl)-5-methyl-1H-1,2,3-triazol-4-yl)sulfonyl)phenol], for which the EC50 in data set [2] turned out to be 3.3 µM. In data set [4], the IC50 was 20.9 µM. Regarding `Cc1c(S(=O)(=O)c2ccc(C(C)(C)C)cc2)nnn1-c1cc(O)ccc1O` [LC-85, 2-(4-((4-(tert-butyl)phenyl)sulfonyl)-5-methyl-1H-1,2,3-triazol-1-yl)benzene-1,4-diol], the IC50 in data set [1] (setting [7]) was 12.8 µM; in data set [2], 3.9 µM; in data set [5] (Anta = compound exhibited antagonism, read-out: RXRβ (Anta)), 31 µM. Turning to `COc1ccc(O)cc1-n1nnc(S(=O)(=O)c2ccc(C(C)(C)C)cc2)c1C` [LC-87, 3-(4-((4-(tert-butyl)phenyl)sulfonyl)-5-methyl-1H-1,2,3-triazol-1-yl)-4-methoxyphenol], in data set [2], the EC50 was 12 µM. `COc1ccc(OC)c(-n2nnc(S(=O)(=O)c3ccc(C(C)(C)C)c(O)c3)c2C)c1` [LC-88, 2-(tert-butyl)-5-((1-(2,5-dimethoxyphenyl)-5-methyl-1H-1,2,3-triazol-4-yl)sulfonyl)phenol]: the EC50 in data set [2] amounted to 1.4 µM. Moreover, in data set [4], the IC50 worked out at 13 µM.
